# Test results: patent US7915276B2, “Berberrubine derivatives having antifungal activities” (priority 2006, dated 2011)
# Tests used:
# [1] = molecular target: T1, chitin synthase 2 of Saccharomyces cerevisiae ECY38-38A(pAS6) (Saccharomyces cerevisiae, UniProt P14180); test: In vitro enzyme assay for chitin synthase 2 of Saccharomyces cerevisiae (enzyme 2); type: biochemical; conditions: relative to polyoxin D (50% inhibitory activity = value 5)
# T1 construct: made in house; host or cells: Saccharomyces cerevisiae ECY38-38A (chs1-23 chs2::LEU2 cal1/csd2) carrying plasmid pAS6, grown in galactose medium; 130,000 x g membrane pellet
# Method in brief: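 Values are scores: 5 means 50% inhibition at the same concentration as polyoxin D, lower scores 2- to 16-fold higher concentration, higher scores ½ to ⅛. Radiolabel from 1.1 mM UDP-[14C]-GlcNAc was incorporated into TCA-insoluble chitin over 90 min at 30 °C (pH 7.5 Tris, 2 mM Co2+). The enzyme was a trypsin-activated membrane fraction from CHS2-only S. cerevisiae ECY38-38A(pAS6).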
# [2] = test system: Candida albicans ATCC 10231; test: In vitro antifungal activity (MIC), NCCLS method; type: cell-based; conditions: 48 hours
# Method in brief: (§1)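 Two-fold dilutions, final inoculum 5×10^2–2.5×10^3 cell/mL, NCCLS protocol; 48 h culture for these strains. MIC = minimum inhibitory concentration.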
# [3] = test system: Candida lusitaniae ATCC 42720; test: In vitro antifungal activity (MIC), NCCLS method; type: cell-based; conditions: 48 hours
# Method in brief: as §1
# [4] = test system: Candida parapsilosis ATCC 34136; test: In vitro antifungal activity (MIC), NCCLS method; type: cell-based; conditions: Candida parapsilosis ATCC 34136; 48 hours
# Method in brief: as §1
# [5] = test system: Aspergillus flavus ATCC 64025; test: In vitro antifungal activity (MIC), NCCLS method; type: cell-based; conditions: 48 hours
# Method in brief: (§2)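 ATCC reference strains tested by NCCLS MIC method. Final inoculum 5×10^2 to 2.5×10^3 cell/mL over a two-fold dilution series; 48 h incubation.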
# [6] = test system: Candida albicans A207 (clinical isolate); test: In vitro antifungal activity (MIC), NCCLS method; type: cell-based; conditions: 48 hours
# Method in brief: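 According to NCCLS guidance, each compound is diluted two-fold and challenged with a fungal inoculum of 5×10^2 to 2.5×10^3 cell/mL (final). Incubation lasts 48 hours.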
# [7] = test system: Cryptococcus neoformans ATCC 36556; test: In vitro antifungal activity (MIC), NCCLS method; type: cell-based; conditions: RPMI 1640 medium, 72 hours
# Method in brief: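 Broth microdilution per NCCLS: two-fold serial dilutions of test compound inoculated with fungal suspension at a final 5×10^2 to 2.5×10^3 cell/mL. Strains other than Cryptococcus neoformans were incubated 48 hours before MIC reading.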
# [8] = test system: Candida tropicalis ATCC 13803; test: In vitro antifungal activity (MIC), NCCLS method; type: cell-based; conditions: 48 hours
# Method in brief: as §1
# [9] = test system: Aspergillus fumigatus ATCC 16424; test: In vitro antifungal activity (MIC), NCCLS method; type: cell-based; conditions: 48 hours
# Method in brief: as §2
# [10] = test system: Aspergillus terreus ATCC 46941; test: In vitro antifungal activity (MIC), NCCLS method; type: cell-based; conditions: 48 hours
# Method in brief: as §2
# Candida krusei ATCC 6258 = test: In vitro antifungal activity (MIC), NCCLS method; type: cell-based; conditions: 48 hours
# Method in brief: as §1
# [11] = test system: Candida glabrata ATCC 48435; test: In vitro antifungal activity (MIC), NCCLS method; type: cell-based; conditions: Candida glabrata ATCC 48435; 48 hours
# Method in brief: as §1
# [12] = test system: Mucor ramosissimus ATCC 90286; test: In vitro antifungal activity (MIC), NCCLS method; type: cell-based; conditions: 48 hours
# Method in brief: as §1
# [13] = molecular target: T2, chitin synthase 1 of Candida albicans chs2 Δ chs 3 Δ (Candida albicans, UniProt P23316); test: In vitro enzyme assay for chitin synthase 1 of Candida albicans (enzyme 1); type: biochemical; conditions: relative to polyoxin D (50% inhibitory activity = value 5)
# T2 construct: Crude enzyme was prepared using the Candida albicans chs2 Δ chs 3 Δ mutant; endogenous in cells; host or cells: Candida albicans chs2Δ/chs2Δ chs3Δ/chs3Δ mutant; 130,000 x g membrane pellet
# Method in brief: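 Trypsin-activated crude membrane chitin synthase 1 from C. albicans chs2Δ chs3Δ was incubated 90 min at 30 °C with 1.1 mM UDP-[14C]GlcNAc and 2 mM cobalt acetate in Tris-HCl pH 7.5. Filtered TCA precipitate was counted by scintillation; values are scores 1–8 against polyoxin D (5 = same concentration).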
# T1 sequence (P14180 whole entry): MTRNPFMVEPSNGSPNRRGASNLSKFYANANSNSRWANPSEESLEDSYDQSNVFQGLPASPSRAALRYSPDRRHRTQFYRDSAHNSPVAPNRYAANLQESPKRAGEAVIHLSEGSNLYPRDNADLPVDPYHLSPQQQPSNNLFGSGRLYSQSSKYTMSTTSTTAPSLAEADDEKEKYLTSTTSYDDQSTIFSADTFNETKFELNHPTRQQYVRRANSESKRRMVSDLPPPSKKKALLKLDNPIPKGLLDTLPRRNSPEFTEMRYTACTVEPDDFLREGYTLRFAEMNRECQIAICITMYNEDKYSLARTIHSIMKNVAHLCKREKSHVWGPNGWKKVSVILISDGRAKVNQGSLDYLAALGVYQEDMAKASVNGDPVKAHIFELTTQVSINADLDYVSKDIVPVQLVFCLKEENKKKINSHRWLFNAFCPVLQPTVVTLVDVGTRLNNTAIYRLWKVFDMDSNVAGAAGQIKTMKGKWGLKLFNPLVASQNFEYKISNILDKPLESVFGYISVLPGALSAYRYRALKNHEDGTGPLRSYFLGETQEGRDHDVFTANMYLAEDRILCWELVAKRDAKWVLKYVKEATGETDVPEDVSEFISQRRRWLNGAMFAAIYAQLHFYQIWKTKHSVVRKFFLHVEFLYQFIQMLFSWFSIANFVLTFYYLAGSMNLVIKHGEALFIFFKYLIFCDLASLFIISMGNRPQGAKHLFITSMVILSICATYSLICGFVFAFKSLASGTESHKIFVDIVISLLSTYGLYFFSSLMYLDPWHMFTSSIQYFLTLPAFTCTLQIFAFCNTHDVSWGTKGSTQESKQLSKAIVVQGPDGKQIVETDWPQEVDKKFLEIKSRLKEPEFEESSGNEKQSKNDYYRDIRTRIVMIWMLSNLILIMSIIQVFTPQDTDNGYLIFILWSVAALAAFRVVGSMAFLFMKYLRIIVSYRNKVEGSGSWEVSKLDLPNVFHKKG
# T2 sequence (P23316 whole entry, stated change not applied): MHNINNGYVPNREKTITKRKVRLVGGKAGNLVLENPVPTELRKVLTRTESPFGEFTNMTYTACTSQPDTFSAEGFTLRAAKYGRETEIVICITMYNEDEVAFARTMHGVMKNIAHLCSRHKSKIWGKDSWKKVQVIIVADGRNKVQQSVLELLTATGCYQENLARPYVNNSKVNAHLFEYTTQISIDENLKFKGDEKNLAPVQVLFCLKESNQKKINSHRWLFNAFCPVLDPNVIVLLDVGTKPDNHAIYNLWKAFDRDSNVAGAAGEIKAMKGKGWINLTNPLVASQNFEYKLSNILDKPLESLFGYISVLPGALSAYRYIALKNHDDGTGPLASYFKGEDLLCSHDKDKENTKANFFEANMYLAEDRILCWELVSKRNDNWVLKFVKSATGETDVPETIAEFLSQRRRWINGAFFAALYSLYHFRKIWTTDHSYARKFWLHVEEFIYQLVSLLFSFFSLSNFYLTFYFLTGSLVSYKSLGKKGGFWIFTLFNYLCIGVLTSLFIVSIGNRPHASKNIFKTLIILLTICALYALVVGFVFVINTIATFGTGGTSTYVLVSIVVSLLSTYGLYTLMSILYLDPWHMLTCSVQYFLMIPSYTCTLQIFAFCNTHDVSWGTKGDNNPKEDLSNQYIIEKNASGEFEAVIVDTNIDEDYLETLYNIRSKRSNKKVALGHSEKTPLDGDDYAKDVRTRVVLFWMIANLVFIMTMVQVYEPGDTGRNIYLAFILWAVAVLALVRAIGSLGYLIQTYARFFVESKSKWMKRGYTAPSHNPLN
Substance,Relative activity Enzyme 2 [1],MIC (minimum inhibitory concentration) [2] [µg/mL],MIC (minimum inhibitory concentration) [3] [µg/mL],MIC (minimum inhibitory concentration) [4] [µg/mL],MIC (minimum inhibitory concentration) [5] [µg/mL],MIC (minimum inhibitory concentration) [6] [µg/mL],MIC (minimum inhibitory concentration) [7] [µg/mL],MIC (minimum inhibitory concentration) [8] [µg/mL],MIC (minimum inhibitory concentration) [9] [µg/mL],MIC (minimum inhibitory concentration) [10] [µg/mL],MIC (minimum inhibitory concentration) (Candida krusei ATCC 6258) [µg/mL],MIC (minimum inhibitory concentration) [11] [µg/mL],MIC (minimum inhibitory concentration) [12] [µg/mL],Relative activity Enzyme 1 [13]
13-(4-Isopropylbenzyl)-9-O-(4-isopropylbenzyl)berberrubine bromide [Compound No. 26],5 (A compound having the same inhibitory activity as that of polyoxin D at the same concentration was given the value 5),1,4,8,8,1,2,1,4,8,2,2,8,"2 (Compounds having the inhibitory activity at 2-fold, 4-fold, 8-fold and 16-fold higher concentrations than that of polyoxin D were given the values of 4, 3, 2 and 1, respectively)"
13-(4-Isopropylbenzyl)-9-O-hexylberberrubine chloride [Compound No. 51],"6 (compounds having the inhibitory activity at ½, ¼ and ⅛ lower concentrations than that of polyoxin D were given the values of 6, 7 and 8, respectively)",0.25,0.5,2,8,0.25,0.5,0.125,2,8,1,2,4,"3 (Compounds having the inhibitory activity at 2-fold, 4-fold, 8-fold and 16-fold higher concentrations than that of polyoxin D were given the values of 4, 3, 2 and 1, respectively)"
13-(4-tert-Butylbenzyl)-9-O-hexylberberrubine iodide [Compound No. 9],"6 (compounds having the inhibitory activity at ½, ¼ and ⅛ lower concentrations than that of polyoxin D were given the values of 6, 7 and 8, respectively)",0.25,1,2,8,0.25,1,0.125,2,8,1,2,4,"3 (Compounds having the inhibitory activity at 2-fold, 4-fold, 8-fold and 16-fold higher concentrations than that of polyoxin D were given the values of 4, 3, 2 and 1, respectively)"
13-(4-Isopropylbenzyl)-9-O-hexylberberrubine iodide [Compound No. 19],"6 (compounds having the inhibitory activity at ½, ¼ and ⅛ lower concentrations than that of polyoxin D were given the values of 6, 7 and 8, respectively)",0.25,1,2,8,0.25,1,0.125,2,8,1,2,4,"4 (Compounds having the inhibitory activity at 2-fold, 4-fold, 8-fold and 16-fold higher concentrations than that of polyoxin D were given the values of 4, 3, 2 and 1, respectively)"
13-(4-Isopropylbenzyl)-9-O-crotylberberrubine bromide [Compound No. 24],5 (A compound having the same inhibitory activity as that of polyoxin D at the same concentration was given the value 5),0.5,1,4,8,0.5,1,0.5,2,4,1,4,4,"2 (Compounds having the inhibitory activity at 2-fold, 4-fold, 8-fold and 16-fold higher concentrations than that of polyoxin D were given the values of 4, 3, 2 and 1, respectively)"
13-(4-Isopropylbenzyl)-9-O-(3-hydroxypropyl)berberrubine chloride [Compound No. 53],"6 (compounds having the inhibitory activity at ½, ¼ and ⅛ lower concentrations than that of polyoxin D were given the values of 6, 7 and 8, respectively)",0.5,2,2,8,0.5,1,0.5,2,8,1,2,4,"4 (Compounds having the inhibitory activity at 2-fold, 4-fold, 8-fold and 16-fold higher concentrations than that of polyoxin D were given the values of 4, 3, 2 and 1, respectively)"
